Test results reported in patent publication US9487528B2 (CHIESI FARMACEUTICI S.p.A., priority 2014, dated 2016).

Target: T1, human neutrophil elastase (HNE) (Homo sapiens, UniProt P08246)
T1 construct: purchased Sigma E8140
T1 sequence (P08246 30-267): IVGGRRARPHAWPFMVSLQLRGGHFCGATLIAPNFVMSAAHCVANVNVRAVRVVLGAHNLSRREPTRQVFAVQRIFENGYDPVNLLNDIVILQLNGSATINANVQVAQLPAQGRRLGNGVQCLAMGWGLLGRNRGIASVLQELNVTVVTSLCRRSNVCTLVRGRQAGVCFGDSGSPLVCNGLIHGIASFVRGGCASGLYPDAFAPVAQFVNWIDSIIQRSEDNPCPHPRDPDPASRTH
Assay: HNE enzyme assay (human neutrophil elastase enzyme activity, fluorogenic peptide substrate)
Type: biochemical
Conditions: human leukocyte elastase 0.00072 U/mL; MeOSuc-Ala-Ala-Pro-Val-AMC 100 μM; 25° C., 30 minutes; at least two separate experiments; read-out: HNE inhibition (IC50 values)
Experimental: Compounds of this invention were tested for potency in a human neutrophil elastase (HNE) enzyme activity assay.
Assays were performed in 96-well plates in a total assay volume of 100 μL. The final concentration of elastase enzyme (human leukocyte elastase, Sigma E8140) was 0.00072 U/mL. The peptide substrate (MeOSuc-Ala-Ala-Pro-Val-AMC, Calbiochem #324740) was used at a final concentration of 100 μM. The final concentration of DMSO was 1% in the assay buffer (0.05M Tris.HCl, 0.1M NaCl, 0.1M CaCl2, 0.0005% brij-35, pH 7.5). The enzymatic reaction was started by addition of the enzyme and incubated at 25° C. for 30 minutes. After incubation, the reaction was stopped by addition of soybean trypsin inhibitor (Sigma T9003) at a final concentration of 50 μg/well. Fluorescence was measured using a Molecular Devices fluorescence plate reader using 380 nm excitation and 460 nm emission wavelengths.
A dose response to each compound was performed and the effect of the compound in each experiment was expressed as a percentage inhibition of the control enzyme fluorescence. Dose response curves were plotted and compound potency (IC50) was determined. Compounds were tested in at least two separate experiments.

| SMILES | IC50 |
| --- | --- |
| COC(=O)C1=C(C)N(c2cccc(C(F)(F)F)c2)c2n[nH]c(=O)n2[C@H]1c1ccc(C#N)cc1OC (racemic) [Example 33b] | 20 to 100 nM |
| COCCOc1cc(C#N)ccc1[C@@H]1C(C(=O)OC)=C(C)N(c2cccc(C(F)(F)F)c2)c2n[nH]c(=O)n21 (single isomer, unassigned) [Example 34a] | < 20 nM |
| COCCOc1cc(C#N)ccc1[C@@H]1C(C(=O)OC)=C(C)N(c2cccc(C(F)(F)F)c2)c2n[nH]c(=O)n21 (single isomer, unassigned) [Example 34b] | 20 to 100 nM |
| CC1=C(C#N)[C@@H](c2ccc(C#N)cc2C(O)CO)n2c(n[nH]c2=O)N1c1cccc(C(F)(F)F)c1 (single isomer, unassigned) [Example 35a] | < 20 nM |
| CC1=C(C#N)[C@@H](c2ccc(C#N)cc2CCS(C)(=O)=O)n2c(n[nH]c2=O)N1c1cccc(C(F)(F)F)c1 [Example 37, (R)-5-[4-Cyano-2-(2-methanesulfonyl-ethyl)-phenyl]-7-methyl-3-oxo-8-(3-trifluoromethyl-phenyl)-2,3,5,8-tetrahydro-[1,2,4]triazolo[4,3-a]pyrimidine-6-carbonitrile] | < 20 nM |

Next, values leading:

| IC50 | SMILES |
| --- | --- |
| 20 to 100 nM | CC1=C(C#N)[C@@H](c2ccc(C#N)cc2C(O)CO)n2c(n[nH]c2=O)N1c1cccc(C(F)F)c1 (mixture of isomers) [Example 39d, (R) and (S)-5-[4-Cyano-2-(1,2-dihydroxy-ethyl)-phenyl]-8-(3-difluoromethyl-phenyl)-7-methyl-3-oxo-2,3,5,8-tetrahydro-[1,2,4]triazolo[4,3-a]pyrimidine-6-carbonitrile] |
| < 20 nM | CC1=C(C#N)[C@@H](c2ccc(C#N)cc2CCO)n2c(n[nH]c2=O)N1c1cccc(C(F)F)c1 (single isomer, unassigned) [Example 38a] |
| 100 to 500 nM | CC1=C(C#N)[C@@H](c2ccc(C#N)cc2CCO)n2c(n[nH]c2=O)N1c1cccc(C(F)F)c1 (single isomer, unassigned) [Example 38b] |
| < 20 nM | CC1=C(C#N)[C@@H](c2ccc(C#N)cc2C(O)CO)n2c(n[nH]c2=O)N1c1cccc(C(F)F)c1 (single isomer, unassigned) [Example 39a] |
| 100 to 500 nM | CC1=C(C#N)C(c2ccc(C#N)cc2C(O)CO)n2c(n[nH]c2=O)N1c1cccc(C(F)F)c1 (single isomer, unassigned) [Example 39b] |
| < 20 nM | CC1=C(C#N)[C@@H](c2ccc(C#N)cc2CCO)n2c(n[nH]c2=O)N1c1cccc(C(F)(F)F)c1 [Example 36, (R)-5-[4-Cyano-2-(2-hydroxy-ethyl)-phenyl]-7-methyl-3-oxo-8-(3-trifluoromethyl-phenyl)-2,3,5,8-tetrahydro-[1,2,4]triazolo[4,3-a]pyrimidine-6-carbonitrile] |
